# Laboratory results from patent US20090123376A1, “THERAPEUTIC AGENTS WITH DECREASED TOXICITY” (priority 2004, published 2009).
# Non-standard residues stand in square brackets, D forms with d. Residues, ends and D or L forms follow the SMILES beside them. *: point of attachment. Dolaproine = CO[C@@H]([C@@H]1CCCN1)[C@@H](C)C(=O)O; Dil = CC[C@H](C)[C@H](NC)[C@@H](CC(=O)O)OC; X1 = C[C@@H](N*)[C@@H](O)c1ccccc1; NMeV = CN[C@H](C(=O)O)C(C)C
# Experiments:
# [1] = Toxicity of IgG-MMAE, F(ab')2-MMAE conjugates and free MMAE in rats (Example 3); type: in vivo, Female Spraque-Dawley (SD) rats
# Procedure: Female Spraque-Dawley (SD) rats weighing between 75-80 grams (Charles River Laboratories, Hollister, Calif.) were used in the following studies to compare the toxicity of free MMAE, Fab-MMAE and F(ab′)2-MMAE conjugates.
# The body surface area was calculated as follows: [{(body weight in grams to 0.667 power)×11.8}/10000]. (Guidance for Industry and Reviewers. Estimating the Safety Starting Dose in Clinical Trials for Therapeutics in Adult Healthy Volunteers. U.S. Department of Health and Human Services Food and Drug Administration, Center for Drug Evaluation and Research (CDER), Center for Biologics Evaluation and research (CBER), December 2002).
# General clinical observations were performed daily. Morbidity and mortality checks were performed twice daily (AM and PM). The body weights of the animals were measured pre-dose on Study Day 1 and daily thereafter. Whole blood was collected into EDTA containing tubes for hematology parameters (e.g., mean serum AST levels, ALT levels, GGT levels and billirubin levels) and differential cell counts (e.g., mean white blood cell counts and platelet counts). Whole blood was collected into serum separator tubes for clinical chemistry parameters. Blood samples were collected pre-dose on Study Day-4, on Study Day 3 and on Day 5 at necropsy. Whole blood was also collected into lithium heparin containing tubes at necropsy and the plasma was frozen at −70° C. for later analysis. The following tissues were collected at necropsy: liver, kidneys, heart, thymus, spleen, brain, sternum and sections of the GI tract, including stomach, large and small intestine. At necropsy, only spleen and thymus were weighed. All statistical analyses were done on Day 5 body weights using a One Way ANOVA, Tukey's test, (SigmaStat 2.03 Software).
# [2] = test system: MMTV-HER2 transgenic mammary tumors (Fo5); conditions: established MMTV-HER2 transgenic mammary tumors (Fo5)
# Procedure: Log Cell Kill analyses based on tumor doubling times were conducted. The Log Cell Kill analysis uses a mathematical computation of tumor growth delay based on the time it takes for tumors to double in size after treatment begins compared to controls.
# [3] = 2105 μg MMAE/m2, day 3 (Herceptin-vc-MMAE days 3 and 5)
# [4] = 2105 μg MMAE/m2 single iv bolus
Compound,morphologic changes (histology) ([1]; 2105 μg MMAE/m2),"liver associated serum enzymes / liver function tests [1, 3]","platelet and white blood cell counts [1, 3]","body weight lost by Day 3 compared with Day 1 weights [1, 4] [grams]","weight loss, comparison between groups [1, 4]","clinical observations ([1]; 2105 μg MMAE/m2 single iv bolus, Study Day 3)",response of the Fo5 tumor line [2]
"CC[C@H](C)[C@@H]([C@@H](CC(=O)N1CCC[C@H]1[C@H](OC)[C@@H](C)C(=O)N[C@H](C)[C@@H](O)c1ccccc1)OC)N(C)C(=O)[C@@H](NC(=O)[C@@H](NC)C(C)C)C(C)C [free MMAE, monomethylauristatin] (H-[NMeV]V[Dil][Dolaproine]-X1)",most severe,"highest elevations in liver associated serum enzymes ALT, AST and GGT",lowest platelet and white blood cell counts,12,comparable weight loss,moribund,
Herceptin®,,,,,,,non-responsive
